Assay [1] relates to impotentia erectionis. The following applies: buccal, 100 I.U. three times a day for 14 days; cited from earlier work.
For assay [2], the system named is male erectile ability. Description: Single blind trial of rapidly dissolving oral formulation on male erectile ability. The format is in vivo, human. The conditions noted are these: 40 mg dose. As to the method: In order to test the ability of a rapidly dissolving oral formulation of phentolamine mesylate on erectile ability, a single blind trial was conducted.
All patients had impotence of organic etiology. Patients were selected for inclusion in the trial based medical history and physical examination with a duration of impotence of less than 3-4 years. Each patient was given two tablets: a rapidly dissolving tablet containing 40 mg of phentolamine mesylate (see Table 1), and a placebo tablet lacking phentolamine mesylate.
Patients were asked to take one tablet 20 to 30 minutes before attempting coitus. One or more days after using the first tablet, the patients repeated the process with the second tablet.
Patients were advised not to consume alcohol prior to using the tablets and were told not to expect erection without sexual stimulation. […] Patients were also asked to report side effects.

Where a name gives a salt, the structure may show the parent alone.

Here are results for 2 compounds from US6124337A, “Methods and formulations for modulating the human sexual response” (priority 1999, dated 2000).

Turning to `CC[C@H](C)[C@@H]1NC(=O)[C@H](Cc2ccc(O)cc2)NC(=O)[C@@H](N)CSSC[C@@H](C(=O)N2CCC[C@H]2C(=O)N[C@@H](CC(C)C)C(=O)NCC(N)=O)NC(=O)[C@H](CC(N)=O)NC(=O)[C@H](CCC(N)=O)NC1=O` [oxytocin], the “Patients with improvement of impotentia erectionis” value in assay [1] was 12 of the 16. Turning to `Cc1ccc(N(CC2=NCCN2)c2cccc(O)c2)cc1` [phentolamine mesylate], the “Success in improving erectile ability” value in assay [2] is listed as “significant success”.
